{
  "source": "patent US20160095837A1",
  "about": "“MODULATION OF MITOCHONDRIAL CALCIUM UNIPORTER ACTIVITY FOR TREATING AND PREVENTING ARRHYTHMIAS” (priority 2014, published 2016)",
  "key": {"[1]": {"tested_on": "sinoatrial nodal (SAN) pacemaker cells", "assay": "Spontaneous action potential rate of single SAN cells (perforated patch clamp)", "type": "cell-based, mouse", "procedure": "(§1) SAN cells were placed in Tyrode's solution at 36±0.5° C. and were identified by their characteristic morphology (spindle or spider shape) and spontaneous activity. SAN cells were identified electrophysiologically by spontaneous action potentials with a slow depolarizing phase 4 and the hyperpolarization-activated current (If).^27 Spontaneous action potentials, If and ICa were recorded using the perforated (amphotericin B or β-escin in studies requiring dialysis of Ru360 and/or ATP) patch-clamp technique^28 on single SAN cells at 36±0.5° C. in Tyrode's solution. Intracellular Ca^2+ transients were recorded from single SAN cells using Fura-2 AM excited at 340 nm and 380 nm and emitted and 510 nm. Endogenous NADH from single SAN cells was measured by excitation at 350 nm and recording emitted light at 460 nm.^29 Mitochondrial Ca^2+ was measured at 535 nm from mt-pericam expressing SAN cells exited at 415 nm^20. Mitochondrial Ca^2+ entry was measured in cell membrane permeabilized cardiomyocytes isolated from DN-MCU transgenic, wild type mice and from HEK293 cells using Calcium green-5N^30.\nIsolation of single SAN cells from mice was performed according to previously published methods^22, 27, 31 with minor modifications. Mice were administered an intraperitoneal injection of avertin (20 μl/g) and monitored until unresponsive. The heart was excised and placed into Tyrode's solution (35° C.), consisting of (mM) 140 NaCl, 5.0 HEPES, 5.5 Glucose, 5.4 KCl, 1.8 CaCl2, and 1.0 MgCl2. The pH was adjusted to 7.4 with NaOH. […] The SAN was cut into smaller pieces, which were transferred and rinsed in a solution containing (mM) 140 NaCl, 5.0 HEPES, 5.5 Glucose, 5.4 KCl, 0.2 CaCl2, 0.5 MgCl2, 1.2 KH2PO4, 50 Taurine and 1 mg/ml bovine serum albumin (BSA), with pH adjusted to 7.4 using NaOH. SAN tissue pieces were digested in 5 ml of solution containing collagenase type I, elastase (Worthington), and protease type XIV (Sigma) for 20-30 min. The tissue was transferred to 10 ml of Kraft-Bruhe (KB) medium containing (mM) 100 potassium glutamate, 5.0 HEPES, 20 Glucose, 25 KCl, 10 potassium aspartate, 2.0 MgSO4, 10 KH2PO4, 20 taurine, 5 creatine, 0.5 EGTA, and 1 mg/ml BSA, with pH adjusted to 7.2 using KOH. The tissue was agitated using a glass pipette for 10 min. The cells were stored at 4° C. and studied within 7 hours.\nSAN cells were placed in Tyrode's solution at 36±0.5° C. SAN cells were identified by their characteristic morphology (spindle or spider shape) and spontaneous activity in all single cell experiments. SAN cells were also identified electrophysiologically by typical spontaneous action potentials with slow depolarizing phase 4 and the hyperpolarization-activated current (If) in electrophysiological experiments.\nSpontaneous action potentials (APs) and If were recorded using the perforated (amphotericin B or β-escin) patch-clamp technique^28 on single SAN cell at 36±0.5° C. in Tyrode's solution (0.5 mM BaCl2 was added to the bath solution when recording If^32). The pipette was filled with (mM) 130 potassium aspartate, 10 NaCl, 10 HEPES, 0.04 CaCl2, amphotericin B 240 μg/ml with pH adjusted to 7.2 with KOH. SAN cells with stable APs lasting at least 5 min were included in the experiments. β-escin 25 μM was substituted for amphotericin B to allow dialysis of Ru360 or ATP. When recording If, membrane potential was held at −35 mV, the voltage steps were applied for 5 s ranging from −125 mV to −45 mV in 10 mV increments or vice versa.^33 ICa was measured using the perforated patch technique at […] as previously described.^22 ICa was confirmed by its sensitivity to Nifedipine 5 μM. Depolarizing voltage pulses (300 ms in duration) to various potentials (−60 mV to 60 mV in 10 mV step) were applied after 50 ms at −40 mV to inactivate INa from a holding potential of −70 mV. […]"}, "[2]": {"tested_on": "NADH", "assay": "NADH autofluorescence in SAN cells", "type": "cell-based, mouse", "settings": "Ru360 dialysis", "procedure": "as §1\nThe autofluorescence of endogenous NADH, which derives primarily from mitochondria,^29,35 was measured as described^29. NADH was excited at 350 nm (AT350/SOX, Chroma) and fluorescence was recorded at 460 nm (ET460/50m and T400LP, Chroma). […]"}, "[3]": {"target": "mitochondria", "settings": "read-out: Kd, binding to mitochondria; cited from earlier work"}},
  "data": [
    {"substance": "(μ)[(HCO2)(NH3)4Ru]2OCl3) [Ru360]", "values": [
      {"measurement": "Basal SAN cell rates", "setting": "[1]; dialysis, no ISO", "result": "neither Ru360 nor ATP had any affect"},
      {"measurement": "SAN cell action potential frequency increases to ISO", "setting": "[1]; freshly isolated SAN cells dialyzed with Ru360 5 μM, vs cells without Ru360", "result": "significantly reduced"},
      {"measurement": "ISO-induced increase in NADH fluorescence", "setting": "[2]", "result": "prevented"},
      {"measurement": "Kd", "setting": "[3]", "result": 0.34, "unit": "nM"}
    ]}
  ]
}
